From paper PMC12051768, “Reduced Renal Uptake of Various Radiopharmaceuticals with Sodium Paraaminohippurate Coadministration in a Rat Model” (Journal of Nuclear Medicine, 2025)
Entries after “also recorded” stand apart in the source; their conditions may differ. Like-named read-outs stand apart in the source and are kept apart here.

Assays:
[1] = SPECT/CT quantification of kidney activity after coinjection of radiotracers with NaCl, Arg-Lys or paraaminohippurate; type: in vivo, Wistar rats; settings: for relative change of kidney uptake with 200 mg/mL paraaminohippurate coinjection in comparison to 0.9% NaCl: imaging, negative = reduction; for effect of paraaminohippurate coinjection on renal uptake (in words): compared with NaCl coinjection
Protocol: Approximately 10 min later, 50–60 MBq of the ^177Lu-radiolabeled radiopharmaceuticals were injected intravenously in combination with 0.5 mL of 0.9% NaCl, 0.5 mL of paraaminohippurate (200 mg/mL), or 0.5 mL of Arg-Lys (200 mg/mL). At 0.5, 1, 4, 8, and 24 h after injection of the ^177Lu-radiolabeled compounds, SPECT/CT imaging was conducted under isoflurane anesthesia, using Mediso nano-SPECT/CT with a Silver upgrade system (Mediso Kft). VivoQuant version 1.22 software (VivoQuant) was used to determine the volume of interest and to quantify the activity in the kidneys.

[2] = set-up: method as in PMID 38637142; settings: 12 patients treated with [^177Lu]Lu-DOTATOC; cited from earlier work
[3] = Tolerability of paraaminohippurate coadministration; type: in vivo; settings: rats, 200 mg/mL solution, intraperitoneal priming plus intravenous coinjection
Protocol: Experiments were conducted at the Helmholtz-Zentrum Dresden-Rossendorf, Institute of Radiopharmaceutical Cancer Research (approved by Landesdirektion Dresden, number DD24.1-5131/450/16, July 6, 2018). Groups of 5 male Wistar rats each (average body weight, 210 g) were randomized for coinjection of 0.9% NaCl, Arg-Lys solution (200 mg/mL), or paraaminohippurate solution (200 mg/mL). The animals received an intraperitoneal priming dose of 1.0 mL of 0.9% NaCl, 1.0 mL of Arg-Lys, or 1.0 mL of paraaminohippurate solution 10 min before radiotracer injection. The injection solutions for the biodistribution were prepared as mix of [^177Lu]Lu-DOTATOC solution added to 1.5 mL of NaCl, Arg-Lys, or paraaminohippurate solution. The average injected activity ± SD of [^177Lu]Lu-DOTATOC was 4.32 ± 0.51 MBq/kg in 4 animals, whereas 1 rat per group received 149 ± 15 MBq/kg. […]
Approximately 10 min later, 50–60 MBq of the ^177Lu-radiolabeled radiopharmaceuticals were injected intravenously in combination with 0.5 mL of 0.9% NaCl, 0.5 mL of paraaminohippurate (200 mg/mL), or 0.5 mL of Arg-Lys (200 mg/mL). […] VivoQuant version 1.22 software (VivoQuant) was used to determine the volume of interest and to quantify the activity in the kidneys.

[4] = glomerular filtration and proximal tubular secretion; cited from earlier work
[5] = PET quantification of kidney activity of [^68Ga]Ga-PSMA-11 with NaCl or paraaminohippurate; settings: for relative change of kidney uptake with 200 mg/mL paraaminohippurate coinjection in comparison to 0.9% NaCl: negative = reduction; for effect of paraaminohippurate coinjection on renal uptake (in words): compared with NaCl coinjection
Protocol: PET experiments were conducted by CROmed Translational Research Center Ltd. Healthy adult male Wistar rats (3 animals per group) received an intraperitoneal priming dose of 1 mL of 0.9% NaCl, 1 mL of paraaminohippurate (200 mg/mL), or 1 mL of Arg-Lys (200 mg/mL), followed by 15–30 MBq of [^68Ga]Ga-PSMA-11 once intravenously in combination with 0.9% NaCl, paraaminohippurate, or Arg-Lys. PET examinations were conducted on an upgraded small-animal PET PRIMATE P4 scanner (Concorde Microsystems Inc.) at 5 min and 0.5, 1, 2, and 4 h after injection.

[6] = set-up: species or system Wistar rats; settings: male, Wistar, rat, in vivo
Protocol: Experiments were conducted at the Helmholtz-Zentrum Dresden-Rossendorf, Institute of Radiopharmaceutical Cancer Research (approved by Landesdirektion Dresden, number DD24.1-5131/450/16, July 6, 2018). Groups of 5 male Wistar rats each (average body weight, 210 g) were randomized for coinjection of 0.9% NaCl, Arg-Lys solution (200 mg/mL), or paraaminohippurate solution (200 mg/mL). The animals received an intraperitoneal priming dose of 1.0 mL of 0.9% NaCl, 1.0 mL of Arg-Lys, or 1.0 mL of paraaminohippurate solution 10 min before radiotracer injection. The injection solutions for the biodistribution were prepared as mix of [^177Lu]Lu-DOTATOC solution added to 1.5 mL of NaCl, Arg-Lys, or paraaminohippurate solution. The average injected activity ± SD of [^177Lu]Lu-DOTATOC was 4.32 ± 0.51 MBq/kg in 4 animals, whereas 1 rat per group received 149 ± 15 MBq/kg.
As for paraaminohippurate, 500 mg paraaminohippurate were administered per rat; […] thereof via intravenous injection; this by itself already results in an initial plasma concentration far exceeding the saturating 800 mg/L stated in ([16]). […]
Animals were killed 5 and 60 min after radiotracer injection; organs and tissues of interest were extracted, and their mass and activity were determined. Activities were counted in an automatic γ-counter, which was cross-calibrated with a dose calibrator by 3 standard samples. […]

[7] = NaCl coinjection, AUC within first hour after injection
[8] = PAH coinjection in comparison to NaCl
[9] = PAH coinjection, AUC within first hour after injection
[10] = independent of the coinjected compound
[11] = paraaminohippurate vs NaCl coinjection
[12] = male, Wistar, rat, in vivo, %ID/g of kidney tissue

Question: Which “relative change of kidney uptake with 200 mg/mL paraaminohippurate coinjection in comparison to 0.9% NaCl” value (shortened to “relative change of kidney uptake … to 0.9% NaCl”) ([1]; 0.5 h) does the source give for `O=C([O-])CC[C@H](NC(=O)N[C@@H](CCCCNC(=O)CCCCCCC(=O)NCCCC[C@@H](NC(=O)[C@@H](Cc1ccccc1)NC(=O)[C@@H](Cc1ccc(O)c(I)c1)NC(=O)CC[C@H](C(=O)[O-])N1CCN(CC(=O)[O-])CCN(CC(=O)[O-])CCN(CC(=O)[O-])CC1)C(=O)[O-])C(=O)[O-])C(=O)[O-].[177Lu+3].[H+].[H+].[H+].[H+].[H+]` [[^177Lu]Lu-PSMA-I&T] here?
Answer: −18%

Question: What about the “relative change of kidney uptake … to 0.9% NaCl” value ([1]; 1 h) of the same molecule?
Answer: −22%

Question: And the “relative change of kidney uptake … to 0.9% NaCl” value ([1]; 4 h)?
Answer: −61%

Question: What about the “kidney AUC0–1 h, NaCl” value [1, 7] of the same molecule?
Answer: 64.7 %ID/g*h

Question: What about the “kidney AUC0–1 h, Difference” value [1, 8] of the same molecule?
Answer: −34%

Question: What about the “kidney AUC0–1 h, PAH” value [1, 9] of the same molecule?
Answer: 42.8 %ID/g*h

Question: And the “effect of paraaminohippurate coinjection on renal uptake (in words)” value (from here on “effect of paraaminohippurate coinjection”) [1]?
Answer: To a lesser extent, paraaminohippurate-mediated nephroprotection was observed

Question: What about the “effect of paraaminohippurate coinjection” value ([1]; listed as PSMA-I&T) of the same molecule?
Answer: reduced

Question: And the “time of peak / maximum kidney activity after injection” value [1, 10]?
Answer: 0.5 h

Question: And the “reduction of kidney AUC within the first hour after injection” value [1, 11]?
Answer: 34%

Question: Which “relative change of kidney uptake … to 0.9% NaCl” value ([1]; 0.5 h) does the source give for [^177Lu]Lu-DOTATATE here?
Answer: −80%

Question: And the “relative change of kidney uptake … to 0.9% NaCl” value ([1]; 1 h)?
Answer: −83%

Question: What about the “relative change of kidney uptake … to 0.9% NaCl” value ([1]; 4 h) of the same molecule?
Answer: −56%

Question: What about the “relative change of kidney uptake … to 0.9% NaCl” value ([1]; 8 h) of the same molecule?
Answer: −49%

Question: And the “relative change of kidney uptake … to 0.9% NaCl” value ([1]; 24 h)?
Answer: −46%

Question: And the “kidney AUC0–24 h, NaCl” value ([1]; NaCl coinjection, AUC within 24 h after injection)?
Answer: 113.7 %ID/g*h

Question: And the “kidney AUC0–24 h, Difference” value [1, 8]?
Answer: −60%

Question: And the “kidney AUC0–24 h, PAH” value ([1]; PAH coinjection, AUC within 24 h after injection)?
Answer: 45.4 %ID/g*h

Question: And the “effect of paraaminohippurate coinjection” value [1]?
Answer: significantly lower; also recorded: markedly diminished; also recorded: significantly reduced

Question: What about the “time of peak / maximum kidney activity after injection” value [1, 10] of the same molecule?
Answer: 0.5 h

Question: Which “kidney uptake of the radiolabeled compound versus Arg-Lys solution” value [2] does the source give for `Nc1ccc(C(=O)NCC(=O)[O-])cc1.[Na+]` [paraaminohippurate, sodium paraaminohippurate] here?
Answer: comparable

Question: And the tolerability in patients [2]?
Answer: well tolerated

Question: What about the “tolerability / toxicity of coadministration” value [3] of the same molecule?
Answer: well tolerated, and no immediate or delayed toxicity was observed

Question: And the “tolerability / toxicity of coadministration” value ([3]; listed as Paraaminohippurate)?
Answer: well tolerated, with no toxicity observed

Question: And the “fraction filtered by the kidney from the plasma in a single pass-through” value [4]?
Answer: more than 90%

Question: What does the source list for `O=C([O-])CN(CCN(CC(=O)[O-])Cc1cc(CCC(=O)NCCCCCC(=O)NCCCC[C@H](NC(=O)N[C@@H](CCC(=O)O)C(=O)O)C(=O)O)ccc1[O-])Cc1cc(CCC(=O)O)ccc1[O-].[68Ga+3].[OH3+]` [[^68Ga]Ga-PSMA-11]?
Answer: relative change of kidney uptake with 200 mg/mL paraaminohippurate coinjection in comparison to 0.9% NaCl ([5]; 5 min): −21%; relative change of kidney uptake with 200 mg/mL paraaminohippurate coinjection in comparison to 0.9% NaCl ([5]; 0.5 h): −23%; relative change of kidney uptake with 200 mg/mL paraaminohippurate coinjection in comparison to 0.9% NaCl ([5]; 1 h): −37%; relative change of kidney uptake with 200 mg/mL paraaminohippurate coinjection in comparison to 0.9% NaCl ([5]; 2 h): −5%; relative change of kidney uptake with 200 mg/mL paraaminohippurate coinjection in comparison to 0.9% NaCl ([5]; 4 h): +15%; kidney AUC0–1 h, NaCl [5, 7]: 45.9 %ID/g*h; kidney AUC0–1 h, Difference [5, 8]: −19%; kidney AUC0–1 h, PAH [5, 9]: 37.1 %ID/g*h; effect of paraaminohippurate coinjection on renal uptake (in words) [5]: To a lesser extent, paraaminohippurate-mediated nephroprotection was observed; effect of paraaminohippurate coinjection on renal uptake (in words) ([5]; listed as PSMA-11): reduced; time of peak kidney activity after injection [5, 10]: 0.5 h; reduction of kidney AUC within the first hour after injection [5, 11]: 19%

Question: For `C[C@@H](O)[C@@H]1NC(=O)[C@H](CCCCN)NC(=O)[C@@H](Cc2c[nH]c3ccccc23)NC(=O)[C@H](Cc2ccc(O)cc2)NC(=O)[C@@H](NC(=O)[C@@H](Cc2ccccc2)NC(=O)CN2CCN(CC(=O)O)CCN(CC(=O)O)CCN(CC(=O)O)CC2)CSSC[C@@H](C(=O)N[C@H](CO)[C@@H](C)O)NC1=O` [[^177Lu]Lu-DOTATOC, metal not drawn], which kidney uptake ([6]; 5 min) is on record?
Answer: 2.93 ± 0.42 %ID/g

Question: What about the kidney uptake ([6]; 1 h) of the same molecule?
Answer: 2.16 ± 0.31 %ID/g

Question: And the “%ID/g of kidney tissue” value ([1]; male, Wistar, rat, in vivo, 0.5 h)?
Answer: 13.3 (8.4) %ID/g

Question: What about the “%ID/g of kidney tissue” value ([1]; male, Wistar, rat, in vivo, 8 h) of the same molecule?
Answer: 2.7 (0.0) %ID/g

Question: And the tissue uptake at 1 h [1, 12]?
Answer: 12.2 %ID/g

Question: What about the tissue uptake at 4 h [1, 12] of the same molecule?
Answer: 2.7 %ID/g

Question: What about the tissue uptake at 24 h [1, 12] of the same molecule?
Answer: 2.4 %ID/g

Question: What about the “kidney AUC0–24 h, Difference” value ([1]; rat, in vivo) of the same molecule?
Answer: −51%

Question: And the “kidney AUC0–24 h, NaCl” value ([1]; rat, in vivo)?
Answer: 87.0 %ID/g*h

Question: And the “kidney AUC0–24 h, PAH” value ([1]; rat, in vivo)?
Answer: 43.0 %ID/g*h

Question: What about the “time of peak / maximum kidney activity after injection” value ([1]; rat, in vivo) of the same molecule?
Answer: 0.5 h
